We go through two compounds from patent EP0432677B1, “N-(pyrrolo[2,3-d]pyrimidin-3-ylacyl)-glutamic acid derivatives” (THE TRUSTEES OF PRINCETON UNIVERSITY, priority 1989, dated 1991).

Values after ≈ are worked out from the molar mass of the structure shown. “Also recorded” adds a separate entry of the source.

For data set [1], the system named is CCRF-CEM. Nature of the data set: Representative inhibition values against CCRF-CEM cell cultures. It is filed as cell-based. As to conditions: Homo sapiens.
Data set [2] concerns CCRF-CEM. Kind of data set: Reversal of cytotoxicity by added metabolites (hypoxanthine, AICA, thymidine, leucovorin). In kind it is cell-based, human.
Data set [3] relates to Cem human lymphoblastic leukemia cells. Kind of data set: Inhibition of growth of Cem human lymphoblastic leukemia cells, 72 hours incubation, Coulter Counter particle count (Example 11). The following applies: Homo sapiens, CCRF-CEM, 72 hours. In kind it is cell-based. As for the experimental part:
Each of the compounds was dissolved in 100% dimethylsulfoxide. Dilutions of each compound were prepared to yield a range of test concentrations as hereinafter indicated.
Cem human lymphoblastic leukemia cells are grown in RPMI 1640 media (MABio), supplemented with 10% dialyzed fetal bovine serum (Gibco) at 37°C in humidified atmospheric conditions of 95% air and 5% CO₂. The cells are grown in static suspension (T-flask, Corning) maintained in log phase at a concentration of 3-7 x 10⁵ cells/ml.
(i) 10 µl of a test compound is placed in a well (Costar 24 well clusters). This step is repeated for each test concentration of the compounds. (ii) 500 µl of serum-free media is added to each well. (iii) A sterile bottle containing RPMI 1640 media supplemented with 10% dialyzed fetal bovine serum, 16 mM hepes and 8 mM mops buffers and 3 x 10⁴ cells/ml is placed on a magnetic stirrer. A Wheaton peristaltic pump is used to deliver 1.5 ml of this cell suspension to each well. The resulting final volume delivered to each well is 2.0 ml at a cellular concentration of […]. (iv) The cluster wells are incubated at 37°C in a humidified incubator (95% air, 5% CO₂) for 72 hours. (v) After the incubation period, measurements of each well are taken using the ZB1 Coulter Counter particle counter and the IC₅₀ (concentration inhibiting 50% of cellular growth) is determined. (vi) The results of this test are as follows: Table I

The test system of a further data set is tumor cells. Nature of the data set: In vivo antitumor activity in mice inoculated with tumor cells, eight daily i.p. doses. The following applies: for % Inhibition / Tumor Weight: Table V, eight daily doses; for Tumor Weight: mean ± standard deviation. More on the design: species or system strain DBA/2. As for the experimental part:
Female mice, strain DBA/2, were inoculated with tumor cells. Treatment with the test compounds began the day following inoculation. The treatment consisted of eight daily doses i.p. (intraperitoneal) of either Compounds A and C for eight consecutive days. Tumor size was measured on the day following the last day of treatment to determine the inhibitory effect of the test compounds on tumor growth.

The test system of data set [4] is Cem human lymphoblastic leukemia cells. Kind of data set: Reversal studies to identify the point of enzymatic inhibition (Example 11). In kind it is cell-based. The following applies: from reversal with 100 µM hypoxanthine and/or 5 µM thymidine. As for the experimental part:
The mechanism of action of each compound was determined through further tests employing so-called "reversal" studies. These studies supplied compounds or precursors which, alone or together, identified the specific point of enzymatic inhibition. • (a) Hypoxanthine - Hypoxanthine will reverse the inhibitory effects of a compound if the compound functions as an inhibitor of purine de novo synthesis. The availability of hypoxanthine thus allows cells to bypass purine de novo synthesis. • (b) Thymidine - Thymidine alone will reverse the inhibitory effects of a compound if the compound functions as a specific inhibitor of thymidylate synthetase. • (c) Hypoxanthine and Thymidine - If a compound is determined in (a) to not be an inhibitor of purine de novo synthesis, and in (b) to not be an inhibitor of thymidilate synthetase, then a reversal study utilizing hypoxanthine and thymidine, in combination, will determine whether the compound can produce inhibition of both pathways. Thus if this combination reverses the inhibitory effects of a compound, the compound most likely functions as an inhibitor of dihydrofolate reductase (involved in both purine and pyrimidine biosynthesis).
In each case, the basic procedure outlined above was followed, modified in that 250 µl of the reversal compound [or of each reversal compound in […]] was added to the test wells, and the amount of serumless media added to each test well was decreased [or entirely eliminated in (b)] by the same amount. The reversal compounds were prepared as 8X stock solutions in phosphate buffered saline (sterile filtered through a 0.2 µ acrodisc filter - Gelman) so that 250 µl of the stock solution would yield a final concentration of 100 µM hypoxanthine and/or 5 µM thymidine.

`Nc1nc2[nH]cc(CCc3ccc(C(=O)N[C@@H](CCC(=O)O)C(=O)O)cc3)c2c(=O)[nH]1` gave an IC50 in the data set on CCRF-CEM [1] of 0.004 µg/mL (≈ 0.00936 µM). For the same compound, the “Cytotoxicity reversed by addition of aminoimidazolecarboxamide (AICA)” value in the data set with CCRF-CEM [2] (addition of aminoimidazolecarboxamide (AICA)) is recorded as “not reversed”. In addition, the “Cytotoxicity reversed by addition of hypoxanthine” value in the data set on CCRF-CEM [2] (addition of hypoxanthine) was “not reversed”. Moreover, the “Cytotoxicity reversed by addition of thymidine” value in the data set on CCRF-CEM [2] (addition of thymidine) is on record as “reversed”.

In general, % Inhibition refers to the change of the read-out against control, counted positive when it falls. Low readings indicate a response near the control, high ones a response far below the control. For the compound `Nc1nc(O)c2c(n1)NCC2CCc1ccc(C(=O)NC(CCC(=O)O)C(=O)O)cc1` (centres unmarked) [Compound A, reference compound], the activity at 0.045 µg/mL in data set [3] (concentration 0.045 µg/ml, read-out: Cellular Growth (%)) stood at 100%. Moreover, the activity at 0.137 µg/mL in data set [3] (concentration 0.137 µg/ml, read-out: Cellular Growth (%)) came out at 63.9%. Moreover, the activity at 0.411 µg/mL in data set [3] (concentration 0.411 µg/ml, read-out: Cellular Growth (%)) was 21.5%. In addition, the activity at 1.23 µg/mL in data set [3] (concentration 1.23 µg/ml, read-out: Cellular Growth (%)) came to 16.1%. In data set [3] (concentration 3.7 µg/ml, read-out: Cellular Growth (%)), the activity at 3.7 µg/mL came out at 15.3%. Moreover, the activity at 11.1 µg/mL in data set [3] (concentration 11.1 µg/ml, read-out: Cellular Growth (%)) is 16.2%. Besides, the activity at 33.3 µg/mL in data set [3] (concentration 33.3 µg/ml, read-out: Cellular Growth (%)) is 15.5%. In addition, the activity at 100 µg/mL in data set [3] (concentration 100.0 µg/ml, read-out: Cellular Growth (%)) was determined as 13.1%. The IC50 in data set [3] (concentration inhibiting 50% of cellular growth, read-out: relative overall in vitro inhibitory concentration (IC50)) was 0.2 µg/mL (≈ 0.466 µM). Besides, the “% Inhibition” value in the data set on tumor cells (dose 3.125 mg/kg i.p.) came out at 0%; in the data set on tumor cells (dose 6.25 mg/kg i.p.), 0%; in the data set on tumor cells (dose 12.5 mg/kg i.p.) it was 0%; in the data set with tumor cells (dose 25 mg/kg i.p.) it was 12%; in the data set with tumor cells (dose 50 mg/kg i.p.) it was 19%; in the data set on tumor cells (dose 100 mg/kg i.p.), 0%. Further, in the data set with tumor cells (dose 200 mg/kg i.p.), the “% Inhibition” value is on record as 0%. In addition, the “Tumor Weight” value with tumor cells (dose 3.125 mg/kg i.p.) is on record as 2825 ± 822 mg; in the data set with tumor cells (dose 6.25 mg/kg i.p.) it was 2719 ± 413 mg; with tumor cells (dose 12.5 mg/kg i.p.), 3360 ± 703 mg; with tumor cells (dose 25 mg/kg i.p.) it was 2121 ± 410 mg; in the data set on tumor cells (dose 50 mg/kg i.p.), 1935 ± 498 mg; with tumor cells (dose 100 mg/kg i.p.), 3447 ± 747 mg. In addition, the “Tumor Weight” value in the data set with tumor cells (dose 200 mg/kg i.p.) is listed as 2525 ± 694 mg. For the same compound, the “inhibitory effect on tumor growth in vivo” value in the data set on tumor cells (overall assessment in words) was “essentially no inhibitory effect; also recorded: inactive”. In addition, in data set [4], the “mechanism of action (point of enzymatic inhibition)” value is “appear to inhibit TS”.
